From article PMC9412875, “^64Cu-DOTHA2-PSMA, a Novel PSMA PET Radiotracer for Prostate Cancer with a Long Imaging Time Window” (Pharmaceuticals, 2022)
Read-outs that look alike come from different tables or passages of the source.

Key:
PSMA = biological target: PSMA; parameters: method as in PMID 25883127; conditions: cited from earlier work
[1] = Plasma stability (ex vivo) and protein binding in mouse serum/plasma; assay type: in vitro ADME; conditions: incubation of free 64Cu(OAc)2 in mouse plasma
Description: Plasma stability studies were carried out by incubating ^64Cu-DOTHA2-PSMA (50 MBq in 250 μL PBS buffer) in 250 μL of mouse serum at 37 °C for up to 24 h. The plasma was then mixed twice with ethanol (1:1) to precipitate all the proteins. The samples were subjected to vortex mixing for 1 min and then centrifugation for 10 min at 7000 rpm. Plasma proteins were separated from the soluble component by ultracentrifugation and the radioactivity was assessed. The supernatant fraction was assayed by radio-TLC on C18 plates and by UPLC; free ^64Cu(OAc)2 and ^64Cu-DOTHA2-PSMA were used as standards. The radio-TLCs were eluted with 0.1 M sodium citrate buffer at pH 5.5 using an Instant Imager system (BioScan, DC, U.S.A.) for radiodetection. The precipitated proteins were again subjected to 10% TFA, vortexed for 2–3 min, and then centrifuged for 10 min at 7000 rpm. The separation and analysis for the supernatant and the proteins were performed in the same manner.
The protein binding ability was evaluated by incubating ^64Cu-DOTHA2-PSMA (100 MBq) in phosphate buffer (250 μL, pH 7) at 37 °C and fresh mouse serum (250 μL) and for 1 h, 4 h, and 24 h. Plasma proteins were precipitated by the addition of ethanol (1:1, v/v) to the plasma samples, followed by centrifugation at 7000 rpm for 5 min at room temperature and separation of the supernatant. This process was repeated three times with the same volume of ethanol, and the supernatants were pooled. The radioactivity content of the supernatant and the precipitated protein were measured in a dose calibrator to obtain the protein binding percentage.

[2] = cited from earlier work
[3] = parameters: method as in PMID 29088775, doi:10.1515/ract-2016-2632; conditions: cited from earlier work
[4] = Balb/c mice biodistribution; assay type: in vivo; conditions: 2 h p.i.
Description: ^64Cu-DOTHA2-PSMA biodistribution was assessed in balb/c mice (n = 30) by harvesting blood and organs at 1 h, 2 h, 4 h, 24 h, and 48 h p.i. to measure tissue radioactivity and weight. Results were reported as the %IA/g of tissue and compared with the radiotracer used for clinical imaging in our facility, ^68Ga-PSMA-617.
Balb/c mice (n = 30) were injected with a bolus of ^64Cu-DOTHA2-PSMA by the tail vein (in 0.3 mL of saline: 3 MBq for 1 h, 2 h, and 4 h p.i., 7.5 MBq for 24 h p.i. and 21 MBq for 48 h p.i.). Injected activity had to be increased for later time points to ensure reliable detection and reliability in organs with a low uptake, e.g., the brain. At all timepoints, blood was collected using a heparin-coated syringe by femoral vein puncture and mice were then euthanized and dissected. Harvested tissues were rinsed, blotted dry, and then weighted and counted in gamma counter. The results are reported as the %IA per gram of tissue. The biodistribution results were compared with the ^68Ga-PSMA-617 results obtained by our team at 1 h and 2 h p.i.

LNCaP cells = assay: Cellular efflux assay; assay type: cell-based, human; conditions: 1h incubation
Description: Here, 12-well polylysine-coated Cellbind plates were seeded with 150 × 10^3 LNCaP cells with 1.75 mL of cell media. At 70–100% confluence (3 days of growth), the cell medium was changed and 37 kBq of ^64Cu-DOTHA2-PSMA in 1 mL of cell medium was added to each well of group 1 and 160 kBq to each of group 2.
For efflux assays, after adding ^64Cu-DOTHA2-PSMA, cells were incubated for 60 min for the time points 15 min to 4 h (group 1) and incubated for 4 h for the time points 4 h to 48 h (group 2). After incubation, the medium was removed, cells were washed with 1 mL of cold PBS, 1 mL of cell media was added and, similarly to uptake and internalization, cells were again incubated in nonradioactive media for 0, 15, 30, 45, 60 min, 2 h, 4 h (group 1) and 4 h, 8 h, 24 h, 32 h or 48 h (group 2) (3 wells per time point). After respective incubation times per well, the medium was removed, and cells were washed with 1 mL of cold PBS, then removed from the well with 1 mL of trypsin to measure the residual radioactivity by gamma counter. The results of residual activity were expressed as percentage of the 1 h (Group 1) or 4 h (Group 2) uptake activity (0 min of efflux time-point) as a function of time for 10^6 cells.
All the assays were performed at least 3 times, each with different ^64Cu-DOTHA2-PSMA production and cell passage. Cells were counted in 3 wells for each protocol (uptake, internalization, and efflux) on day 1 and day 3 of each experiment and an average for cells numbers at day 2.

[5] = biological target: T1, PSMA on the LNCaP human prostate cell line (Homo sapiens, UniProt Q04609); assay: Cellular competition assay; assay type: binding
T1 construct: Human prostate adenocarcinoma LNCaP PSMA-expressing cells were purchased from American Type Culture Collection; host or cells: LNCaP human prostate adenocarcinoma cells
T1 sequence (Q04609 whole entry): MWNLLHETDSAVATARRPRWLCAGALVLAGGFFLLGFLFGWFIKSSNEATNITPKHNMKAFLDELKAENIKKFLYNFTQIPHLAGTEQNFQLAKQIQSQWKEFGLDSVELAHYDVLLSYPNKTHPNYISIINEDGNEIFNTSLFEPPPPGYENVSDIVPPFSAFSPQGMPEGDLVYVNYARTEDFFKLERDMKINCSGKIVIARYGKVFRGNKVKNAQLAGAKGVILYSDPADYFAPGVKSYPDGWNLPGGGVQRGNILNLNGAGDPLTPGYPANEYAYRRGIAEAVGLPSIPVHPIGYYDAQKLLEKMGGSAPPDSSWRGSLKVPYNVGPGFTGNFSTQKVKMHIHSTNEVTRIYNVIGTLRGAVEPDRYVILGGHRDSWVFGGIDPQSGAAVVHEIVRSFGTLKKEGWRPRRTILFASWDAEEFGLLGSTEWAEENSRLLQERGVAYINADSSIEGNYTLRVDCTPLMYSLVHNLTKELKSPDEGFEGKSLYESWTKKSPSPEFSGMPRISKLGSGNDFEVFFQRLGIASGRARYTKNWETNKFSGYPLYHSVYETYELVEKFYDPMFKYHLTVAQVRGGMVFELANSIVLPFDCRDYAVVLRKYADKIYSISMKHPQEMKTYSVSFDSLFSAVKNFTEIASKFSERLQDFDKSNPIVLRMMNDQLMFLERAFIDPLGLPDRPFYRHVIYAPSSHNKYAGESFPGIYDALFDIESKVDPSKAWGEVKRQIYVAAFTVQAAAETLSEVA
Description: Here, 12-well polylysine-coated Cellbind plates were seeded with 150 × 10^3 LNCaP cells. […] […] Cells were then incubated for 1 h, after which the medium was removed, cells were washed once with 1 mL of cold PBS, and then 1 mL of trypsin was added to collect cells for radioactivity measurement by gamma-counter. The assays were performed in triplicate, each time with independent ^64Cu-DOTHA2-PSMA production and cell seedings. IC50 was calculated using GraphPad Prism 9 one site fit logIC50.

Q: For O=C(O)CC[C@H](NC(=O)N[C@@H](CCCCNC(=O)[C@H](Cc1ccc2ccccc2c1)NC(=O)[C@H]1CC[C@H](CNC(=O)CN2CCN(CC(=O)O)CCN(CC(=O)O)CCN(CC(=O)O)CC2)CC1)C(=O)O)C(=O)O [PSMA-617], which Ki (PSMA) is on record?
A: 2.34 ± 2.94 nM

Q: Which “proportion of the signal bound to plasma proteins” value [1] does the source give for CC(=O)[O-].CC(=O)[O-].[64Cu+2] [^64Cu(OAc)2] here?
A: greater than 90%

Q: Which “signal corresponding to the intact product in blood” value ([2]; 2 h p.i.) does the source give for O=C([O-])CN1CCN(CC(=O)[O-])CCN(CC(=O)NCC2CCC(C(=O)NC(Cc3ccc4ccccc4c3)C(=O)NCCCCC(NC(=O)NC(CCC(=O)O)C(=O)O)C(=O)O)CC2)CCN(CC(=O)O)CC1.[64Cu+2] (centres unmarked) [^64Cu-PSMA-617] here?
A: 20%

Q: What about the “signal corresponding to the intact product in liver” value ([2]; 2 h p.i.) of the same molecule?
A: 28%

Q: What about the “signal corresponding to the intact product in urine” value ([2]; 2 h p.i.) of the same molecule?
A: 5.2%

Q: And the “signal corresponding to the intact product in serum” value ([2]; after 5 min)?
A: 71%

Q: What about the “log D” value [3] of the same molecule?
A: −1.93 ± 0.13

Q: What does the source list for O=C(O)CCC(NC(=O)NC(CCCCNC(=O)C(Cc1ccc2ccccc2c1)NC(=O)C1CCC(CNC(=O)CN2CCN(CC(=O)O)CCN(CC(=O)O)CCN(CC(=O)O)CC2)CC1)C(=O)O)C(=O)O.[68Ga] (centres unmarked) [^68Ga-PSMA-617, reference compound]?
A: liver uptake [4]: 0.67 ± 0.16 % IA/g; Retained activity normalized to time 0 (LNCaP cells; efflux time 0.25 h): 101.57%; Retained activity normalized to time 0 (LNCaP cells; efflux time 0.50 h): 106.07%; Retained activity normalized to time 0 (LNCaP cells; efflux time 0.75 h): 97.22%; Retained activity normalized to time 0 (LNCaP cells; efflux time 1 h): 84.75%; Retained activity normalized to time 0 (LNCaP cells; efflux time 2 h): 81.62%; log D [3]: −1.98

Q: For CN([O-])C(=O)CN1CCN(CC(=O)NCC2CCC(C(=O)NC(Cc3ccc4ccccc4c3)C(=O)NCCCCC(NC(=O)NC(CCC(=O)O)C(=O)O)C(=O)O)CC2)CCN(CC(=O)N(C)[O-])CCN(CC(=O)N(C)O)CC1.[Cu+2] (centres unmarked) [^natCu-DOTHA2-PSMA], which IC50 ([5]; in competition with 64Cu-DOTHA2-PSMA, 1 h, reaction medium with 20 g/L BSA, read-out: IC50 on LNCaP) is on record?
A: 11.3 ± 14.3 nM

Q: What about the IC50 ([5]; with 10% BSA in RPMI, read-out: IC50) of the same molecule?
A: 21.4 nM

Q: And the IC50 ([5]; with RPMI only, read-out: IC50)?
A: 9.08 nM
